These results are taken from ChEMBL document CHEMBL4411259, “Medicinal properties of terpenes found in Cannabis sativa and Humulus lupulus” (Eur J Med Chem, 2018).

In brackets after ≈: the same amount, converted by molar mass.

The subject of one data set is SMMC-7721. The experiment in a line: Antiinvasive activity against human SMMC7721 cells by matrigel-based transwell assay. The format is functional, cell-based.
For another data set, the system named is MHCC97H. The experiment in a line: Antiinvasive activity against human MHCC97H cells by matrigel-based transwell assay. The format is functional, cell-based.
Data set [1] concerns HepG2. Put plainly: Antiinvasive activity against human HepG2 cells by matrigel-based transwell assay. Format: functional, cell-based.
The test system of a further data set is RAW264.7. The experiment in a line: Inhibition of LPS-induced nitric oxide production in mouse RAW264.7 cells measured after 20 hrs by Griess assay. The format is functional, cell-based. The following applies: RAW264.7, 20 h.
The species named for data set [2] is Mus musculus. Put plainly: Sedative effect in Swiss mouse assessed as reduction in motility at plasma concentration of 27 nM. Format: functional. The arrangement: scale not given: the % may be the effect or the level left.
Another data set deals with T47D. The experiment in a line: Cytotoxicity against human T47D cells assessed as inhibition of cell proliferation after 24 hrs by WST1 assay. Format: functional, cell-based.
For a further data set, the system named is HeLa. The experiment in a line: Cytotoxicity against human HeLa cells after 3 days by WST1 assay. Format: functional, cell-based. The following applies: 72 h. A general note: Tetrazolium assays rely on reduction of a dye to a coloured formazan, in cell work by metabolically active cells.
Data set [3] relates to HepG2. Put plainly: Cytotoxicity against human HepG2 cells assessed as inhibition of cell proliferation after 24 hrs by WST1 assay. The format is functional, cell-based. Conditions: HepG2, 24 h.
The next data set deals with Trichophyton rubrum. Put plainly: Antimicrobial activity against Trichophyton rubrum after 7 days by microdilution method. Conditions: 168 h. The format is functional.
In a further data set the test system is SW-620. The experiment in a line: Cytotoxicity against human SW620 cells assessed as inhibition of cell proliferation after 24 hrs by WST1 assay. Format: functional, cell-based. The following applies: SW-620, 24 h.
In a further data set the test system is U-937. The experiment in a line: Cytotoxicity against human U937 cells after 3 days by WST1 assay. Format: functional, cell-based. Conditions: U-937, 72 h.
The species entered for data set [4] is Mus musculus. The experiment in a line: Sedative effect in Swiss mouse assessed as reduction in motility at 34 nM. The format is functional. Details: scale not given: the % may be the effect or the level left.
The subject of a further data set is Escherichia coli. The experiment in a line: Antibacterial activity against Escherichia coli CMCC 44102 after 24 hrs by broth dilution method. Format: functional.
For another data set, the system named is Candida albicans. The experiment in a line: Antimicrobial activity against Candida albicans. Format: functional.
The test system of a further data set is Gardnerella vaginalis. The experiment in a line: Antimicrobial activity against Gardnerella vaginalis. Format: functional.
Another data set has as its system U373 MG. Put plainly: Cytoprotective activity against H2O2-induced cell death in human U373MG cells assessed as increase in cell viability preincubated for 24 hrs followed by H2O2-stimulation and measured after 30 mins by MTT assay. The format is functional, cell-based, U-373MG ATCC.
For data set [5], the species on record is Mus musculus. The experiment in a line: Sedative effect in Swiss mouse assessed as reduction in motility. Format: functional. The arrangement: scale not given: the % may be the effect or the level left.
For another data set, the system named is HT-29. The experiment in a line: Cytotoxicity against human HT-29 cells assessed as reduction in cell viability after 24 hrs by MTT assay. Format: functional, cell-based. The following applies: HT-29, 24 h.
Data set [6] concerns the target T1, Cannabinoid receptor 2 (Homo sapiens, UniProt P34972). The experiment in a line: Displacement of [3H]CP55940 from human CB2 expressed in CHOK1 cell membranes after 2 hrs by liquid scintillation counting method.
In data set [7] the target is T1, Cannabinoid receptor 2. The experiment in a line: Agonist activity at recombinant human Cb2 receptor expressed in CHOK1 cells assessed as inhibition of forskolin-stimulated cAMP levels measured up to 30 mins by luminescence assay. The format is functional, cell-based. (cAMP levels reflect the balance of adenylyl cyclase and phosphodiesterase activity.)
A short description of data set [8]: Antitumor activity against human HubCCA1 cells xenografted in BALB/c nude mouse assessed as reduction in lung metastasis at 100 mg/kg, po administered once daily for 30 days measured post last dose by haematoxylin-eosin staining based assay. The arrangement: scale not given: the % may be the effect or the level left. The format is functional.
In data set [9] the target is T2, Transient receptor potential cation channel subfamily A member 1 (Homo sapiens, UniProt O75762). The experiment in a line: Agonist activity at human TRPA1.
T2 sequence (O75762 whole entry): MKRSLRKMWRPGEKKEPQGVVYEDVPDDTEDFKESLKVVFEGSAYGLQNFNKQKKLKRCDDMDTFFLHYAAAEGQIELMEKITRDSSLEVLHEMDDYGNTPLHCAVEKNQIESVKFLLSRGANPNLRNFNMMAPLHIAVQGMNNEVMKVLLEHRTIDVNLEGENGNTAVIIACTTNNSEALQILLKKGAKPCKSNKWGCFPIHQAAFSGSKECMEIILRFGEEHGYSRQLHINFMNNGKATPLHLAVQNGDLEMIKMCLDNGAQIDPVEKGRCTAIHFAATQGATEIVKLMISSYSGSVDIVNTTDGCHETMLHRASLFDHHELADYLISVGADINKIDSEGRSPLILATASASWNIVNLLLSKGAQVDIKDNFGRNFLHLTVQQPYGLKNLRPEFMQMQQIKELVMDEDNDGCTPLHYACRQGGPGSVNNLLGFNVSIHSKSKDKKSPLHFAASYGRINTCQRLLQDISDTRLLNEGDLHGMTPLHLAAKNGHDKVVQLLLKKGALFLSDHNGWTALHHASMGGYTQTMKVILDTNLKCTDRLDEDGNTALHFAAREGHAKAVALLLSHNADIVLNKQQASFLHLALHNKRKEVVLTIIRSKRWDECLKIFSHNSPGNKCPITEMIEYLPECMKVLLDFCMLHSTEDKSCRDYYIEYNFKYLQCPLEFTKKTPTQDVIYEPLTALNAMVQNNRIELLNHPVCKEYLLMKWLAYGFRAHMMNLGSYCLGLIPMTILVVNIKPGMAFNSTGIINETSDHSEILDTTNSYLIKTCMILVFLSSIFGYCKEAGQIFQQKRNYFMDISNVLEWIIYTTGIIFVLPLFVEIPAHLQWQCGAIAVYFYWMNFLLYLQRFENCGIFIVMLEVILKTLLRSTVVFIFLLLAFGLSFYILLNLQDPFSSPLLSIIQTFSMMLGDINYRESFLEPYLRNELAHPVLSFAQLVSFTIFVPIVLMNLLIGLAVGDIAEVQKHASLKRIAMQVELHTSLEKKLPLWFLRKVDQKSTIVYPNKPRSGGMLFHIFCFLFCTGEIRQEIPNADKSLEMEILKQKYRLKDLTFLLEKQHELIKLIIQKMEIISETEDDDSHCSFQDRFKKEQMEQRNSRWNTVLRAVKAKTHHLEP
The nature of data set [10]: Antitumor activity against human HubCCA1 cells xenografted in BALB/c nude mouse assessed as reduction in tumor size at 100 mg/kg, po administered once daily for 30 days measured every 3 consecutive days during compound dosing. Details: scale not given: the % may be the effect or the level left. The format is functional.
Data set [11] is described as follows: Antitumor activity against human HubCCA1 cells xenografted in BALB/c nude mouse assessed as mouse survival at 100 mg/kg, po administered once daily for 30 days. Format: functional. (A xenograft is tissue or cells of one species grown in another, often human tumour cells in immunodeficient mice.)
Data set [12] deals with T2, Transient receptor potential cation channel subfamily A member 1. Put plainly: Antagonist activity at TRPA1 (unknown origin) expressed in Xenopus laevis oocytes assessed as inhibition of mustard oil-induced currents by two-electrode voltage clamp method. Format: cell-based.
A further data set concerns Rattus norvegicus. Put plainly: Antiischemic stroke activity in iv dosed Sprague-Dawley rat middle cerebral artery occlusion-induced ischemia-reperfusion injury model assessed as decrease in infarct size by TTC staining based assay. The format is functional.
Data set [13] can be described thus: Toxicity in po dosed albino Wistar rat. The format is organism-based. The following applies: in vivo.
The target of data set [14] is Neuronal acetylcholine receptor subunit alpha-7 (Homo sapiens, UniProt P36544). The experiment in a line: Antagonist activity at human alpha7 nACHR expressed in Xenopus laevis oocytes assessed as inhibition of acetylcholine-induced currents at -70 mV holding potential by electrophysiology. Format: cell-based.
Chain of Neuronal acetylcholine receptor subunit alpha-7 (P36544 whole entry): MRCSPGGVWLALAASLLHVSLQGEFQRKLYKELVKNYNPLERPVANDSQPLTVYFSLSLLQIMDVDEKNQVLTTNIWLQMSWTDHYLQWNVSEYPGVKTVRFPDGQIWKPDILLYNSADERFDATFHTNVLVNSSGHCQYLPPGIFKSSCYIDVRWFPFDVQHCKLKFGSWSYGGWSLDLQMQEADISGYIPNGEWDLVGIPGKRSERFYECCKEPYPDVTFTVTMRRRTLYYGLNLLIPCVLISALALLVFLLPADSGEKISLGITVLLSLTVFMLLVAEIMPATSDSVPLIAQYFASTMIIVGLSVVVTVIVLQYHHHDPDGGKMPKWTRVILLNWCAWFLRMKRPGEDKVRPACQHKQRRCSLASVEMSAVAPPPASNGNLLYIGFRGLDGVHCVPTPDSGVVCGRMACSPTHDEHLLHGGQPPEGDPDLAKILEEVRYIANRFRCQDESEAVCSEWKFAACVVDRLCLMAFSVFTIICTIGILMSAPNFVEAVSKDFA
A further data set deals with Leukemia cell. Put plainly: Cytotoxicity against ALL/AML patient derived primary leukemia cells after 24 hrs by LDH release assay. Format: functional, cell-based. The following applies: Homo sapiens.
The nature of data set [15]: Inhibition of IL1beta-induced nitric oxide production in human primary chondrocytes preincubated for 30 mins followed by IL1beta-stimulation and measured after 24 hrs by Griess assay. Format: functional, cell-based.
The nature of data set [16]: Toxicity in po dosed mouse. The following applies: in vivo. The format is organism-based.
Data set [17] can be described thus: Toxicity in po dosed rat. Format: organism-based. Conditions: in vivo.
A short description of data set [18]: Dermal toxicity in rabbit. The following applies: in vivo, topical or ocular. Format: organism-based, Oryctolagus cuniculus.
The next data set relates to Coccidioides posadasii. Put plainly: Antifungal activity against Coccidioides posadasii filamentous phase after 48 hrs by broth microdilution method. The format is functional.
The next data set deals with Duodenum. Put plainly: Myorelaxant activity in California White rabbit duodenum assessed as relaxation of high-potassium-induced contraction. The format is functional, tissue-based. Conditions: Oryctolagus cuniculus.
In data set [19] the test system is Histoplasma capsulatum. The experiment in a line: Antifungal activity against Histoplasma capsulatum filamentous phase after 7 days by broth microdilution method. The format is functional. Conditions: 168 h.
The subject of another data set is HL-60. The experiment in a line: Cytotoxicity against human HL60 cells assessed as reduction in cell viability after 24 hrs by MTT assay. The format is functional, cell-based. Conditions: HL-60, 24 h.
The test system of data set [20] is Histoplasma capsulatum. The experiment in a line: Antifungal activity against Histoplasma capsulatum yeast phase after 4 days by broth microdilution method. Format: functional. The following applies: 96 h.

T1 sequence (P34972 whole entry): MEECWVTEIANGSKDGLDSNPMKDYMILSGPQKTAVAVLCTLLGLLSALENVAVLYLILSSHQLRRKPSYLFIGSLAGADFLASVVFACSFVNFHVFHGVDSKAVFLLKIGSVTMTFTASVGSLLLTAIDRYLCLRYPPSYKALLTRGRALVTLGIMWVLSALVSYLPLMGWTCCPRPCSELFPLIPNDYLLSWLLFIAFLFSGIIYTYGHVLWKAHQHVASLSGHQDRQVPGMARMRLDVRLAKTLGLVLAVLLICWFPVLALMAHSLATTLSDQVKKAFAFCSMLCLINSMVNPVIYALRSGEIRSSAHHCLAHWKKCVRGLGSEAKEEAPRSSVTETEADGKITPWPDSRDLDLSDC

On to `C=C(C)[C@H]1CC=C(CO)CC1`, for which the IC50 with SMMC-7721, with MHCC97H and with HepG2 [1] was 100 µM each time.
As for `C/C1=C\CC(C)(C)/C=C/C(=O)/C(C)=C/C(O)C1` (stereo not drawn), the 50% inhibitory concentration (IC50) – broadly, the concentration that inhibits the measured activity by half – in the data set with RAW264.7 was determined as 14.1 µM.
For the compound `C=C[C@@](C)(O)CCC=C(C)C`, the Activity in the data set filed under Mus musculus [2] is recorded as 73%. For the same compound, the IC50 with T47D was determined as 224 µM; in the data set on HeLa, 11 µM; with HepG2 [3], 290 µM; with SW-620 it was 222 µM; in the data set on U-937, 3 µM. In the data set on Trichophyton rubrum, the MIC was 260 µg/mL (≈ 1690 µM).
For the compound `CC1=CCC(C(C)(C)O)CC1` (stereo not drawn), the Activity in the data set filed under Mus musculus [4] amounted to 45%. Also, the figures for the MIC in the data set on Escherichia coli, against Candida albicans and in the data set with Gardnerella vaginalis were 0.78 uL/ml, 0.125 %v/v and 0.06 %v/v, respectively.
`CC1=CC[C@@H]2C[C@H]1C2(C)C` [1R-(+)-ALPHA-PINENE]: the IC50 in the data set on U373 MG was determined as 80 µM. In addition, the Activity in the data set listed under Mus musculus [5] is reported as 14%.
Turning to `C/C1=C\CC/C(C)=C/CC(C)(C)/C=C/C1` [ALPHA-HUMULONE], the IC50 in the data set with HT-29 is 54 µM.
As for `C=C1CC/C=C(\C)CC[C@@H]2[C@@H]1CC2(C)C` [BETA-CARYOPHYLLENE], on Cannabinoid receptor 2 [6], the Ki (commonly a dissociation constant, usually derived from enzyme kinetics or from competition with a known ligand) came to 0.15 µM. The EC50 – broadly, the concentration giving half of the maximal effect – on Cannabinoid receptor 2 [7] came to 1.9 µM.
As for `C=C1CCC[C@]2(C)CC[C@@H](C(C)(C)O)C[C@@H]12` [BETA-EUDESMOL], the values for the Activity in data set [8], in [10] and in [11] were 95%, 92% and 64%, respectively. In data set [9], this compound showed a concentration for a half-maximal effect (EC50) of 33 µM.
On to `CC1(C)C2CCC1(C)C(O)C2` (stereo not drawn) [BORNEOL], for which, in data set [12], the IC50 was 300 µM. In addition, in the data set with Rattus norvegicus, the ED50 (in general, the midpoint of the dose-response relation) was found to be 0.36 mg/kg.
Consider `CC(C)=CCC/C(C)=C/CO` [GERANIOL], for which the LD50 – broadly, the dose at which mortality reaches 50% – in data set [13] amounted to 3600 mg/kg.
Take `CC(C)=CCC[C@](C)(O)[C@@H]1CC=C(C)CC1` [LEVOMENOL]: the IC50 in [14] was 3.1 µM; with Leukemia cell, 14 µM.
As to `C=CC(=C)CCC=C(C)C` [MYRCENE], half-maximal inhibition in data set [15] (IC50) required 37.3 µg/mL (≈ 274 µM).
For `C=CC(C)(O)CC/C=C(\C)CCC=C(C)C` (stereo not drawn) [NEROLIDOL], the LD50 in [16] is 10000 mg/kg; in data set [17], 5000 mg/kg; in data set [18], more than 2000 mg/kg.
With `CC1=CCC(O)(C(C)C)CC1` (stereo not drawn) [TERPINEOL], the results for the MIC in the data set with Coccidioides posadasii, with Histoplasma capsulatum [19] and against Histoplasma capsulatum [20] were 250 µg/mL (≈ 1620 µM), 30 µg/mL (≈ 194 µM) and 10 µg/mL (≈ 64.8 µM), respectively. The IC50 is 170 µM in the data set on Duodenum and 30 µM in the data set with HL-60.
